Test [1] concerns human fibroblasts transfected with reprogramming factor OSKM. Put plainly: Mitochondrial membrane potential during reprogramming (JC-1, flow cytometry). The settings on record: 1 mM. It counts as cell-based. On the procedure:
At different time points of reprogramming, the cells of a control group and a nicotinamide-treated group (Nam) were dissociated with single cells by trypsin, and then stained with JC-1 (5,5′,6,6′-tetraachloro-1,1′,3,3′-tetraethylbenzimidazolocarbocyanine iodide) solution at 37° C. for 15 minutes. After washing, the degree of fluorescence staining was measured by flow cytometry, relative mitochondrial membrane potential was quantified by the red/green ratio.
In general terms: A flow cytometer gives signals particle by particle.

Test [2] relates to human foreskin fibroblasts (hFFs). The test can be described thus: Reprogramming efficiency of human fibroblasts into induced pluripotent stem cells (AP-positive colonies). Format: cell-based. The settings on record: for efficiency of reprogramming by timing of treatment: 1 mM. On the procedure:
Reprogramming efficiency was determined by measuring the number of colonies showing a positive response in the pluripotency-specific marker alkaline phosphatase (AP) staining and having hESC-like morphology. For production of iPSC, human foreskin fibroblasts (hFFs) were seeded on gelatin-coated 6-well plates at a concentration of 1×10^5 cells per well at 6 hours before transfection and were transfected with virus in the presence of polybrene (6 μg/ml). At 5 days after the transfection, the hFFs were collected by trypsin treatment and reseeded on Matrigel-coated 6-well plates at a concentration of 5-6×10^4 cells per well in order to perform experiments in feeder-free conditions. The medium was replaced with MEF-CM medium containing 10 ng/ml of bFGF. The medium was replaced at 2-day intervals. At 20 days after the transfection, hESC-like colonies were collected and transferred to 12-well plates having MEFs as feeder cells, and then the colonies were continuously cultured using the hESC culture method described in Example 1. In order to measure the efficiency of reprogramming into human induced pluripotent stem cells, the number of colonies stained with the embryonic stem cell marker ALP on the Matrigel-coated 6-well plate was counted, and the efficiency of reprogramming was calculated. Each experiment was performed in triplicate. AP staining was performed using a commercial AP kit (Sigma) according to the manufacturer's instruction. Images of AP-positive cells were recorded with HP Scanjet G4010. Also, bight field images were obtained with an Olympus microscope (IX51, Olympus, Japan). In order to examine the change in reprogramming efficiency of human fibroblasts caused by nicotinamide, retrovirus expressing the reprogramming factors Oct4, Sox2, Klf4 and c-Myc was transfected at an MOI of 1. Reprogramming efficiencies caused by the addition of nicotinamide and other NAD precursors were examined.

For test [3], the system named is human embryonic stem cells and human induced pluripotent stem cells. The test can be described thus: Maintenance of undifferentiated state of pluripotent stem cells (morphology, AP staining). Format: cell-based. The settings on record: for undifferentiated state in UM: 0.1 mM nicotinamide added to UM. An excerpt: Human embryonic stem cells (hESC) H9 (NIH Code, WA09; WiCell Research Institute, Madison, Wis.) and H1 (NIH Code, WA01; WiCell Research Institute) and induced pluripotent stem cells (hiPSC) were each cultured with hESC culture medium (unconditioned medium; UM) or MEF-CM (conditioned medium) on γ-irradiated MEFs (mouse embryonic fibroblasts) or on plates coated with Matrigel (BD Biosciences, Franklin Lakes, N.J.). The cultured human embryonic stem cells and induced pluripotent stem cells were treated with collagenase IV (1 mg/ml; Invitrogen) or dispase (1 mg/ml; Invitrogen) once a week and subcultured. MEF-CM was prepared as γ-irradiated MEF according to a known method (Xu C. Nat Biotechnol 19, 971-974) and supplemented with 8 ng/ml of bFGF. UM contained 80% DMEM/F12, 20% knockout serum replacement (KSR, Invitrogen, Carlsbad, Calif.), 1% non-essential amino acids (NEAA, Invitrogen), 1 mM L-glutamine (Invitrogen), 0.1 mM β-mercaptoethanol (Sigma, St. Louis, Mo.) and 6 ng/ml bFGF (basic fibroblast growth factor, Invitrogen). Particularly, for culture in the absence of feeder cells and serum, human embryonic stem cells and human induced pluripotent stem cells were cultured in mTeSR1 medium (StemCell Technologies). Human newborn foreskin fibroblasts (hFF, ATCC, catalog number CRL-2097; American Type Culture Collection, Manassas, Va.) were cultured in a DMEM medium containing 10% FBS (fetal bovine serum, Invitrogen), 1% non-essential amino acids, 1 mM L-glutamine and 0.1 mM β-mercaptoethanol.
AP staining was performed using a commercial AP kit (Sigma) according to the manufacturer's instruction. Images of AP-positive cells were recorded with HP Scanjet G4010. Also, bight field images were obtained with an Olympus microscope (IX51, Olympus, Japan).
In order to verify the effect of nicotinamide on the maintenance of undifferentiated state of pluripotent stem cells, the present inventors performed the following experiment. While human embryonic stem cells and human pluripotent stem cells were cultured in MEF-CM or UM on feeder-free Matrigel, various NAD precursors including nicotinamide were added to the stem cells, and then the effects of the NAD precursors on the stem cells were verified by examining the morphological change and the expression pattern of AP that is a human embryonic stem cell-specific marker.
In addition, in order to examine the effects of nicotinamide at various concentrations, various concentrations of nicotinamide were added to UM, and the degrees of maintenance of undifferentiation of human embryonic stem cells and human induced pluripotent stem cells, which are pluripotent stem cells, were examined. […] However, it was shown that the addition of a low concentration (<0.01 mM) or high concentration (>5 mM) of nicotinamide could not maintain the undifferentiated state of pluripotent stem cells (FIG. 30).
The effect of nicotinamide effective for maintaining the undifferentiated state of human embryonic stem cells and human induced pluripotent stem cells, which are pluripotent stem cells, was verified under various conditions. […] In order to eliminate the use of feeder cell-derived factors and animal serum and ensure culture conditions including a medium (CDM) whose components are known, various concentrations of nicotinamide were added to mTeSR1 (CDM) without feeder cells, and the effects thereof were examined. As a result, it could be seen that the addition of 0.1 mM of nicotinamide was effective for maintaining the undifferentiated state of various human embryonic stem cell lines (H1 and H9) and the human induced pluripotent stem cell line (hiPS) (FIG. 31).

Test [4] concerns promoter regions of Nanog and Oct4. The test can be described thus: Chromatin immunoprecipitation of histone 3 methylation at Nanog and Oct4 promoters. It counts as cell-based, human. On the procedure:
Formaldehyde was added to a cell culture to fix the cells, and then the chromatin was fragmented to a suitable size by sonication. The chromatin was immunoprecipitated with antibodies to lysine residues 4 and 27 of histone 3, and then the DNA was collected and amplified by real-time polymerase chain reaction using primers for the Oct4 and Nanog promoter regions.

Consider `NC(=O)c1cccnc1` [nicotinamide], for which the “membrane potential of mitochondria in reprogramming conditions” value in test [1] is “the membrane potential was maintained”. Besides, the “increase in reprogramming efficiency (AP-positive colonies)” value in test [2] (0.1 mM nicotinamide, compared to untreated group) is given as 13 times; in test [2] (1 mM nicotinamide, compared to untreated group) it was 28 times; in test [2] (10 mM nicotinamide, compared to untreated group), 16 times; in test [2] (20 mM nicotinamide, compared to untreated group), 2 times; in test [2] (compared to the addition of other NAD precursors, OSKM retrovirus MOI 1) it was “about 17 times”. The figures for the “efficiency of reprogramming by timing of treatment” value in test [2] (continuous treatment throughout the process of inducing reprogramming) and in test [2] (treatment in initial stage immediately after viral infection) were “highest increase” and “most effectively increased”, respectively. Further, the “reprogramming efficiency, same cell number reseeded” value in test [2] (nicotinamide for 5 days after infection, not added after reseeding, vs untreated control) is given as “increase in reprogramming efficiency”; in test [2] (nicotinamide only after reseeding (21 days), not in initial stage, vs untreated), “increase in reprogramming efficiency”. Also, the “number of AP-positive cells when feeder cells were used” value in test [3] (0.1 mM) was “most increased”. Further, the results for the “undifferentiated state in UM” value in test [3] and in test [3] (listed as Nam) were “maintained in an undifferentiated state” and “most effectively maintained”, respectively. For the same molecule, the “maintaining the undifferentiated state in mTeSR1 (CDM) without feeder cells” value in test [3] (0.1 mM, H1, H9 and hiPS) is listed as “effective”. Further, the “induction of differentiation in UM, among NAD+ precursors and NAD+” value in test [3] (H9 in UM treated with nicotinamide (FIG. 29)) was “most effectively inhibited”. For the same molecule, the “high concentration that could not maintain the undifferentiated state” value in test [3] (UM) was > 5 mM. Further, in test [3] (UM), the “low concentration that could not maintain the undifferentiated state” value is reported as < 0.01 mM. For the same molecule, in test [3] (UM containing nicotinamide (1 mM), 6 days, feeder-free Matrigel), the “morphology of hESCs cultured in UM, in comparison with other NAD precursors” value was “showed the morphology of undifferentiated human embryonic stem cells”. Besides, in test [3] (hESCs and hiPSCs cultured in UM), the “nicotinamide concentration in UM conserving undifferentiated morphology and positive AP expression” value is 0.1-1 mM. Also, the “methylation of lysine residue 4 of histone 3 in promoter regions of Nanog and Oct4” value in test [4] is recorded as “increased”. Besides, in test [4], the “methylation of residue 27 of histone 3 in promoter regions of Nanog and Oct4” value was “decreased”.

Values taken from patent publication US20150072416A1, “METABOLITE FOR IMPROVING PRODUCTION, MAINTENANCE AND PROLIFERATION OF PLURIPOTENT STEM CELLS, COMPOSITION COMPRISING THE SAME, AND METHOD OF CULTURING PLURIPOTENT STEM CELL USING THE SAME” (KOREA RESEARCH INSTITUTE OF BIOSCIENCE AND BIOTENOLOGY, priority 2012, published 2015).
